Holding throughout (format): cell-based
The target of assay [1] is Phosphatidylinositol 4,5-bisphosphate 3-kinase catalytic subunit gamma isoform (Homo sapiens) (UniProt P48736). Nature of the assay: Inhibition of PI3Kgamma in human Raji cells assessed as inhibition of cell viability at 100 nM after 72 hrs by CellTiter-Glo luminescence assay. (Cellular ATP, detected with luciferase, serves as a proxy for viable cell number.)
The target is the same in assay [2]. Kind of assay: Inhibition of PI3Kgamma in human MOLT-4 cells assessed as inhibition of cell viability at 100 nM after 72 hrs by CellTiter-Glo luminescent assay.
Assay [3] has the same target. Kind of assay: Inhibition of PI3Kgamma in human LCL-1 cells assessed as inhibition of cell viability at 100 nM after 72 hrs by CellTiter-Glo luminescent assay.
Assay [4] has the same target. Nature of the assay: Inhibition of PI3Kgamma in human SUDHL-6 cells assessed as inhibition of cell viability at 100 nM after 72 hrs by CellTiter-Glo luminescent assay. The note with it: SU-DHL-6.
The target is the same in assay [5]. Nature of the assay: Inhibition of PI3Kgamma in human RPMI-8226 cells assessed as inhibition of cell viability at 100 nM after 72 hrs by CellTiter-Glo luminescent assay.
Assay [6] shares this target. Kind of assay: Inhibition of PI3Kgamma in human SUDHL-10 cells assessed as inhibition of cell viability at 100 nM after 72 hrs by CellTiter-Glo luminescent assay. The note with it: SU-DHL-10.

This note sets out measurements from ChEMBL document CHEMBL4699517 (Bioorg Med Chem Lett, 2020).

Molecules are shown by their SMILES. Calls of active or inactive are those of the source. The calls are words filed in the database; no cut-off is given here.

Sequence of Phosphatidylinositol 4,5-bisphosphate 3-kinase catalytic subunit gamma isoform (Homo sapiens) (P48736 whole entry, looked up, canonical isoform): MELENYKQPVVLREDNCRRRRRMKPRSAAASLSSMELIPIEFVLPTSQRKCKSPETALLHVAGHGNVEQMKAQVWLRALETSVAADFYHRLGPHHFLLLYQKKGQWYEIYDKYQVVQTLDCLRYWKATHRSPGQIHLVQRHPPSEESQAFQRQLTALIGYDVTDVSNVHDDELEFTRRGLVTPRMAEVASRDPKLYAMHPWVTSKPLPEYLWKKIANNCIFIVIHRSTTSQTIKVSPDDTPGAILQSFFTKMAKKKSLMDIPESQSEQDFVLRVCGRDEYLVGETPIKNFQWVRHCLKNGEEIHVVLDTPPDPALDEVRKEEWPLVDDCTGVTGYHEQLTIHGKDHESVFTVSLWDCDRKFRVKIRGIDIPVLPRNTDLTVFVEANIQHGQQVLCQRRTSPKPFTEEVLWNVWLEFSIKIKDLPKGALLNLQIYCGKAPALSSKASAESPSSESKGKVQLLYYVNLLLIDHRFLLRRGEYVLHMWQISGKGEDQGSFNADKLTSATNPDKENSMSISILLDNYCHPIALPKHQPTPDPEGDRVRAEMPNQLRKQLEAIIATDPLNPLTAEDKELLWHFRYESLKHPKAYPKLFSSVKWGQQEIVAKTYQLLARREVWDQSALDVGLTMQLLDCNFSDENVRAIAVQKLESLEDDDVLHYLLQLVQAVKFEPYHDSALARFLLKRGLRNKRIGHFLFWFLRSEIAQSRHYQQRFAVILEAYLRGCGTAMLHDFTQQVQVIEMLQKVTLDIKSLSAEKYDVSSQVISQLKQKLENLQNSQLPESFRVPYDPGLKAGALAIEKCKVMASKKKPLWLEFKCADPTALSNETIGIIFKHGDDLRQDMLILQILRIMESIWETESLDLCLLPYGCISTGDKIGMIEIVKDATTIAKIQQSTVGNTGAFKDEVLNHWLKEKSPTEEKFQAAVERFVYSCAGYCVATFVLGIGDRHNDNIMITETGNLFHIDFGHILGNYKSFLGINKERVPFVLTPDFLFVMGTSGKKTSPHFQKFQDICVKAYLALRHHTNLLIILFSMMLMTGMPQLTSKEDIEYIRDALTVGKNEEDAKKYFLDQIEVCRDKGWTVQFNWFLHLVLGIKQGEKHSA

Take `COC(=O)[C@@]12OC[C@]34[C@H]([C@@H](O)[C@@H]1O)[C@@]1(C)CC(=O)C(OC(=O)C[C@H](C)NS(C)(=O)=O)=C(C)[C@@H]1C[C@H]3OC(=O)[C@H](OC(=O)C=C(C)C)[C@@H]24`: in assay [1], the inhibition entry is “inactive”.

On to `COC(=O)[C@@]12OC[C@]34[C@H]([C@@H](O)[C@@H]1O)[C@@]1(C)CC(=O)C(OC(=O)C[C@H](C)NC(C)=O)=C(C)[C@@H]1C[C@H]3OC(=O)[C@H](OC(=O)C=C(C)C)[C@@H]24`, for which the inhibition entry in assay [2], in assay [3], in assay [4], in assay [5], in assay [6] and in assay [1] was “Active” each time. With `CC[C@H](C)[C@H](N)C(=O)OC1=C(C)[C@@H]2C[C@H]3OC(=O)[C@H](OC(=O)C=C(C)C)[C@H]4[C@]5(C(=O)OC)OC[C@]34[C@H]([C@@H](O)[C@@H]5O)[C@@]2(C)CC1=O`, the inhibition entry in assay [1] is “Active”. The same measure, in the same setting: the value for `CC[C@H](C)[C@H](NC(=O)OC(C)(C)C)C(=O)OC1=C(C)[C@@H]2C[C@H]3OC(=O)[C@H](OC(=O)C=C(C)C)[C@H]4[C@]5(C(=O)OC)OC[C@]34[C@H]([C@@H](O)[C@@H]5O)[C@@]2(C)CC1=O` was “inactive”. For `COC(=O)[C@@]12OC[C@]34[C@H]([C@@H](O)[C@@H]1O)[C@@]1(C)CC(=O)C(OC(=O)CNC(=O)CN)=C(C)[C@@H]1C[C@H]3OC(=O)[C@H](OC(=O)C=C(C)C)[C@@H]24`, the inhibition entry in assay [2], in assay [3], in assay [4], in assay [5], in assay [6] and in assay [1] was “Active” each time. Regarding `COC(=O)[C@@]12OC[C@]34[C@H]([C@@H](O)[C@@H]1O)[C@@]1(C)CC(=O)C(OC(=O)C[C@@H](N)C(F)(F)F)=C(C)[C@@H]1C[C@H]3OC(=O)[C@H](OC(=O)C=C(C)C)[C@@H]24`, the inhibition result in assay [1] is “inactive”.

As to `COC(=O)[C@@]12OC[C@]34[C@H]([C@@H](O)[C@@H]1O)[C@@]1(C)CC(=O)C(OC(=O)C[C@@H](N)C(C)C)=C(C)[C@@H]1C[C@H]3OC(=O)[C@H](OC(=O)C=C(C)C)[C@@H]24`, the inhibition entry in assay [1] is “inactive”. Turning to `COC(=O)[C@@]12OC[C@]34[C@H]([C@@H](O)[C@@H]1O)[C@@]1(C)CC(=O)C(OCC(=O)NC(Cc5ccccc5)C(=O)OC(C)(C)C)=C(C)[C@@H]1C[C@H]3OC(=O)[C@H](OC(=O)C=C(C)C)[C@@H]24` (some centres not stated), the inhibition entry in assay [1] was “inactive”. The same measure, in the same setting: as for `COC(=O)[C@@]12OC[C@]34[C@H]([C@@H](O)[C@@H]1O)[C@@]1(C)CC(=O)C(OC(=O)[C@@H]5CCCN5C(=O)OC(C)(C)C)=C(C)[C@@H]1C[C@H]3OC(=O)[C@H](OC(=O)C=C(C)C)[C@@H]24`, the entry is “Active”; as for `COC(=O)[C@@]12OC[C@]34[C@H]([C@@H](O)[C@@H]1O)[C@@]1(C)CC(=O)C(OC(=O)[C@H](C)N)=C(C)[C@@H]1C[C@H]3OC(=O)[C@H](OC(=O)C=C(C)C)[C@@H]24`, “Active”; as for `COC(=O)[C@@]12OC[C@]34[C@H]([C@@H](O)[C@@H]1O)[C@@]1(C)CC(=O)C(OCC(=O)C(C)(C)C)=C(C)[C@@H]1C[C@H]3OC(=O)[C@H](OC(=O)C=C(C)C)[C@@H]24`, “inactive”. Same read-out and setting: the value for `COC(=O)[C@@]12OC[C@]34[C@H]([C@@H](O)[C@@H]1O)[C@@]1(C)CC(=O)C(OC(=O)[C@@H]5CCCN5)=C(C)[C@@H]1C[C@H]3OC(=O)[C@H](OC(=O)C=C(C)C)[C@@H]24` was “Active”; that for `COC(=O)[C@@]12OC[C@]34[C@H]([C@@H](O)[C@@H]1O)[C@@]1(C)CC(=O)C(OC(=O)[C@@H](NC(=O)OC(C)(C)C)C(C)C)=C(C)[C@@H]1C[C@H]3OC(=O)[C@H](OC(=O)C=C(C)C)[C@@H]24` was “inactive”. Regarding `COC(=O)[C@@]12OC[C@]34[C@H]([C@@H](O)[C@@H]1O)[C@@]1(C)CC(=O)C(OC(=O)CN)=C(C)[C@@H]1C[C@H]3OC(=O)[C@H](OC(=O)C=C(C)C)[C@@H]24`, the inhibition entry in assay [1] was “Active”. Still for that read-out and setting: the value for `COC(=O)[C@@]12OC[C@]34[C@H]([C@@H](O)[C@@H]1O)[C@@]1(C)CC(=O)C(OCC(=O)NCCC(=O)O)=C(C)[C@@H]1C[C@H]3OC(=O)[C@H](OC(=O)C=C(C)C)[C@@H]24` was “inactive”; that for `COC(=O)[C@@]12OC[C@]34[C@H]([C@@H](O)[C@@H]1O)[C@@]1(C)CC(=O)C(OCC(=O)NC(Cc5ccccc5)C(=O)O)=C(C)[C@@H]1C[C@H]3OC(=O)[C@H](OC(=O)C=C(C)C)[C@@H]24` (some centres not stated) was “inactive”; that for `COC(=O)COC1=C(C)[C@@H]2C[C@H]3OC(=O)[C@H](OC(=O)C=C(C)C)[C@H]4[C@]5(C(=O)OC)OC[C@]34[C@H]([C@@H](O)[C@@H]5O)[C@@]2(C)CC1=O` was “inactive”. The same measure, in the same setting: the value for `COC(=O)[C@@]12OC[C@]34[C@H]([C@@H](O)[C@@H]1O)[C@@]1(C)CC(=O)C(OC(=O)[C@@H](N)CC(C)C)=C(C)[C@@H]1C[C@H]3OC(=O)[C@H](OC(=O)C=C(C)C)[C@@H]24` was “Active”. Take `COC(=O)[C@@]12OC[C@]34[C@H]([C@@H](O)[C@@H]1O)[C@@]1(C)CC(=O)C(OC(=O)[C@H](C)NC(=O)OC(C)(C)C)=C(C)[C@@H]1C[C@H]3OC(=O)[C@H](OC(=O)C=C(C)C)[C@@H]24`: in assay [1], the inhibition entry is “Active”. The same measure, in the same setting: the value for `COC(=O)[C@@]12OC[C@]34[C@H]([C@@H](O)[C@@H]1O)[C@@]1(C)CC(=O)C(OC(=O)[C@@H](N)C(C)C)=C(C)[C@@H]1C[C@H]3OC(=O)[C@H](OC(=O)C=C(C)C)[C@@H]24` was “Active”; that for `COC(=O)[C@@]12OC[C@]34[C@H]([C@@H](O)[C@@H]1O)[C@@]1(C)CC(=O)C(OC(=O)[C@H](CC(C)C)NC(=O)OC(C)(C)C)=C(C)[C@@H]1C[C@H]3OC(=O)[C@H](OC(=O)C=C(C)C)[C@@H]24` was “inactive”.

As for `COC(=O)[C@@]12OC[C@]34[C@H]([C@@H](O)[C@@H]1O)[C@@]1(C)CC(=O)C(OC(=O)C[C@H](C)NC(=O)OC(C)(C)C)=C(C)[C@@H]1C[C@H]3OC(=O)[C@H](OC(=O)C=C(C)C)[C@@H]24`, the inhibition entry in assay [1] is “inactive”. On the same count and under the same terms, as for `COC(=O)[C@@]12OC[C@]34[C@H]([C@@H](O)[C@@H]1O)[C@@]1(C)CC(=O)C(OCC(=O)NCCC(=O)OC(C)(C)C)=C(C)[C@@H]1C[C@H]3OC(=O)[C@H](OC(=O)C=C(C)C)[C@@H]24`, the entry is “inactive”. The same measure, in the same setting: as for `COC(=O)[C@@]12OC[C@]34[C@H]([C@@H](O)[C@@H]1O)[C@@]1(C)CC(=O)C(OCC(=O)C5CC5)=C(C)[C@@H]1C[C@H]3OC(=O)[C@H](OC(=O)C=C(C)C)[C@@H]24`, the entry is “inactive”.

Turning to `COC(=O)[C@@]12OC[C@]34[C@H]([C@@H](O)[C@@H]1O)[C@@]1(C)CC(=O)C(OC(=O)C[C@@H](N)C5CC5)=C(C)[C@@H]1C[C@H]3OC(=O)[C@H](OC(=O)C=C(C)C)[C@@H]24`, the inhibition result in assay [1] is “inactive”. With `COC(=O)[C@@]12OC[C@]34[C@H]([C@@H](O)[C@@H]1O)[C@@]1(C)CC(=O)C(OCC(N)=O)=C(C)[C@@H]1C[C@H]3OC(=O)[C@H](OC(=O)C=C(C)C)[C@@H]24`, in assay [1], the inhibition result is “inactive”. Regarding `COC(=O)[C@@]12OC[C@]34[C@H]([C@@H](O)[C@@H]1O)[C@@]1(C)CC(=O)C(OCC(=O)NC(C)(C)C)=C(C)[C@@H]1C[C@H]3OC(=O)[C@H](OC(=O)C=C(C)C)[C@@H]24`, the inhibition entry in assay [1] was “inactive”.
